How the values were obtained:
Format in all cases: cell-based
[1] = system: acute lymphoblastic leukemia cells CCRF-CEM (K-RasG12D); experiment: Cell growth inhibition, suspension cells CCRF-CEM; details: Homo sapiens, 1 μM, 72 hours, read-out: CCRF-CEM (KRasG12D) % inhibition at 1 μM
In short: (§1)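 Suspension cells, 2 to 4×10^4 per well, cultured with compound in medium with 0.5% FBS (1% DMSO final) for 72 h at 37° C, 5% CO2. Viable cells counted with Cell Counting Reagent; inhibition calculated relative to controls.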

[2] = system: promyelocytic leukemia cells HL60 (N-RasQ61L); experiment: Cell growth inhibition, suspension cells HL60; details: Homo sapiens, HL-60; 10 μM (***), 72 hours; read-out: HL-60 (NRasQ61L) % inhibition at 10 μM (***)
In short: as §1

[3] = system: acute lymphoblastic leukemia cells MOLT4 (N-RasG12C); experiment: Cell growth inhibition, suspension cells MOLT4; details: Homo sapiens, MOLT-4; 3.3 μM (*), 72 hours; read-out: MOLT-4 (NRasG12C) % inhibition at 3.3 μM (*)
Protocol: (§2) The cell growth inhibitory activity of the compound of the present invention on human culture cells having active-type mutation in Ras was evaluated by the below-mentioned method using suspension cancer cells {acute lymphoblastic leukemia cells CCRF-CEM (K-RasG12D), promyelocytic leukemia cells HL60 (N-RasQ61L), acute lymphoblastic leukemia cells MOLT4 (N-RasG12C), and small cell lung cancer cells SHP77 (K-RasG12V)} and adherent cancer cells {large bowel cancer cells SW480 (K-RasG12V) and large bowel cancer cell SW620 (K-RasG12V)}.
(§3) (Case of suspension cells) The cells suspended in a medium containing 0.5% (v/v) fetal bovine serum (FBS) and each compound solution (final DMSO concentration: 1%) were seeded on a 96-well plate (2 to 4×10^4 cells/well), and the resulting mixture was then cultured at 37° C. in the presence of 5% CO2 for 72 hours.
(§4) Thereafter, the number of viable cells was measured using Cell Counting Reagent (Nacalai Tesque) in accordance with the manufacturer's instructions. Inhibition by the test compound was determined according to the following equation: […]

[4] = system: small cell lung cancer cells SHP77 (K-RasG12V); experiment: Cell growth inhibition, suspension cells SHP77; details: Homo sapiens, 1 μM, 72 hours, read-out: SHP77 (KRasG12V) % inhibition at 1 μM
Protocol: as §2, §3, §4

[5] = system: large bowel cancer cells SW480 (K-RasG12V); experiment: Cell growth inhibition, adherent cells SW480; details: Homo sapiens, 72 hours, read-out: SW480 (KRasG12V) % inhibition at 10 μM
Protocol: as §2
(Case of adherent cells) The cells suspended in a medium containing 10% FBS (1 to 2×10^4 cells/well) were seeded on a 96-well plate, and were then cultured at 37° C. in the presence of […]. Thereafter, the medium was exchanged with a medium containing […], to which each compound solution (final DMSO concentration: […]) had been added, and the cells were then cultured at 37° C. in the presence of […] for 72 hours.
as §4

[6] = system: large bowel cancer cell SW620 (K-RasG12V); experiment: Cell growth inhibition, adherent cells SW620; details: Homo sapiens, SW-620; 1 μM, 72 hours; read-out: SW620 (KRasG12V) % inhibition at 1 μM
In short: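 Adherent cells, 1 to 2×10^4 per well, grown overnight in 10% FBS, then exposed to compound in low-serum medium […] for 72 h at 37° C. Viable cells counted with Cell Counting Reagent; inhibition calculated relative to controls.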

[7] = system: Vemurafenib-resistant malignant melanoma cells A375R (BRafV600E); experiment: Cell growth inhibition, drug-resistant malignant melanoma A375R; details: Homo sapiens, in the presence of 1 μM PLX (Vemurafenib), 72 hours
Protocol: (§5) The human malignant melanoma cell lines A375 and HT 144, each having BRafV600E mutation, were cultured in a medium containing 10% FBS at 37° C. in the presence of 5% CO2. At the time point in which the cells became confluent, 1 μM Vemurafenib, a BRaf inhibitor, was added to the medium, and the cells were then cultured in the presence of Vemurafenib for 1 month or more (during which the medium was exchanged every 1 week), so as to acquire Vemurafenib-resistant malignant melanoma cells A375R and HT 144R. The resulting resistant cells were suspended in a medium containing 10% FBS, and then seeded on a 96-well plate to an amount of 1 to 2×10^4 cells/well. The cells were cultured at 37° C. in the presence of 5% CO2 overnight. Thereafter, the medium was exchanged with a medium containing 0.5% FBS, to which each compound solution (final DMSO concentration: 1%) and 1 μM Vemurafenib had been added, and the cells were then cultured at 37° C. in the presence of 5% CO2 for 72 hours.
as §4
(§6) Hereafter, Inhibition (%) by 3.3 μM compound is shown.

[8] = system: Vemurafenib-resistant malignant melanoma cells HT 144R (BRafV600E); experiment: Cell growth inhibition, drug-resistant malignant melanoma HT144R; details: Homo sapiens, in the presence of 1 μM PLX (Vemurafenib), 72 hours
Protocol: as §5, §4, §6

[9] = system: phosphorylated MEK (pMEK) in HL60 cells; experiment: Ras-Raf signaling inhibition at culture cell level, pMEK; details: Homo sapiens, HL-60; HL60 (N-RasQ61L), 1 μM test compound, 3 hours
Protocol: (§7) The Ras-Raf signaling inhibitory activity of the compound of the present invention at a culture cell level was evaluated by the following method.
(§8) The HL60 cells described in Test Example 2 suspended in a medium containing 0.5% (v/v) FBS with each compound solution (final DMSO concentration: 1%), were seeded on a 12-well plate (2 to 4×10^5 cells/well), and the resulting mixture was then cultured at 37° C. in the presence of 5% CO2 for 3 hours.
(§9) After completion of the cell culture, proteins were extracted from the cells, using RIPA Buffer (Nacalai Tesque) containing a mixture of protease inhibitors and phosphatase inhibitors. An equivalent amount of protein was separated by standard SDS-PAGE and was then transferred onto a PVDF membrane. In order to detect the activation (phosphorylation) of MEK and ERK, downstream molecules of the Ras-Raf signaling pathway, the membrane was probed with 1000-fold diluted primary antibodies {phosphorylated MEK (pMEK: #9121), phosphorylated ERK (pERK: #9101), total MEK (tMEK: #9122), and total ERK (tERK: 9102); all from Cell signaling}, and then with a 1000-fold diluted horseradish peroxidase-labeled secondary antibody against rabbit immunoglobulin G. The immunoreactive signals were colored with EzWestLumi One (ATTO), and were then detected by Fusion FX (Vilber). Signal intensity was quantified by pixel counting. Inhibition by the test compound was determined according to the following equation: […]

[10] = system: phosphorylated ERK (pERK) in HL60 cells; experiment: Ras-Raf signaling inhibition at culture cell level, pERK; details: Homo sapiens, HL-60; HL60 (N-RasQ61L), 1 μM test compound, 3 hours
Protocol: as §7, §8, §9

## COc1cc(/C=C2/C(=O)c3ccccc3N2C(C)=O)ccc1OCC(N)=O [Example 1, (Z)-2-(4-((1-acetyl-3-oxoindolin-2-ylidene)methyl)-2-methoxyphenoxy)-acetamide]
[1]
  inhibition at 1 µM: 51%
[2]
  inhibition at 10 µM: 95%
[3]
  inhibition at 3.3 µM: 88%
[4]
  inhibition at 1 µM: 73%
[5]
  inhibition at 10 µM: 50%
[6]
  inhibition at 1 µM: 53%
[7]
  inhibition at 3.3 µM: 28%
[8]
  inhibition at 3.3 µM: 66%
[9]
  inhibition at 1 µM: 30%
[10]
  inhibition at 1 µM: 61%
